Like-named read-outs stand apart in the source and are kept apart here.
What was measured:
[1] = format: physicochemical; conditions: 298.15 K; for 100 δx1,3 (preferential solvation parameter of RST by PEG400) / D (derivative of the Gibbs energy of transfer) / G1,3 (Kirkwood–Buff integral, PEG400–RST) / G2,3 (Kirkwood–Buff integral, water–RST) / Vcor (correlation volume): 0.1 MPa
[2] = cited from earlier work
[3] = cited from earlier work; remark: listed apart in the source

- 100 δx1,3 (preferential solvation parameter of RST by PEG400) ([1]; x1 = 0.45): 1.64
- D (derivative of the Gibbs energy of transfer) ([1]; x1 = 0.45): –5.48 kJ·mol^–1
- G1,3 (Kirkwood–Buff integral, PEG400–RST) ([1]; x1 = 0.45): –325.4 cm^3·mol^–1
- G2,3 (Kirkwood–Buff integral, water–RST) ([1]; x1 = 0.45): –568.4 cm^3·mol^–1
- Vcor (correlation volume) ([1]; x1 = 0.45): 4133 cm^3·mol^–1
- δx1,3, highest preferential solvation parameter of RST by PEG400 ([1]; x1 = 0.5): 1.65 × 10^–2
- 100 δx1,3 (preferential solvation parameter of RST by PEG400) ([1]; x1 = 0.50): 1.65
- D (derivative of the Gibbs energy of transfer) ([1]; x1 = 0.50): –4.88 kJ·mol^–1
- G1,3 (Kirkwood–Buff integral, PEG400–RST) ([1]; x1 = 0.50): –323.8 cm^3·mol^–1
- G2,3 (Kirkwood–Buff integral, water–RST) ([1]; x1 = 0.50): –584.0 cm^3·mol^–1
- Vcor (correlation volume) ([1]; x1 = 0.50): 4396 cm^3·mol^–1
- 100 δx1,3 (preferential solvation parameter of RST by PEG400) ([1]; x1 = 0.55): 1.64
- D (derivative of the Gibbs energy of transfer) ([1]; x1 = 0.55): –4.36 kJ·mol^–1
- G1,3 (Kirkwood–Buff integral, PEG400–RST) ([1]; x1 = 0.55): –322.8 cm^3·mol^–1
- G2,3 (Kirkwood–Buff integral, water–RST) ([1]; x1 = 0.55): –601.8 cm^3·mol^–1
- Vcor (correlation volume) ([1]; x1 = 0.55): 4652 cm^3·mol^–1
- 100 δx1,3 (preferential solvation parameter of RST by PEG400) ([1]; x1 = 0.60): 1.61
- D (derivative of the Gibbs energy of transfer) ([1]; x1 = 0.60): –3.92 kJ·mol^–1
- G1,3 (Kirkwood–Buff integral, PEG400–RST) ([1]; x1 = 0.60): –322.0 cm^3·mol^–1
- G2,3 (Kirkwood–Buff integral, water–RST) ([1]; x1 = 0.60): –621.8 cm^3·mol^–1
- Vcor (correlation volume) ([1]; x1 = 0.60): 4901 cm^3·mol^–1
- 100 δx1,3 (preferential solvation parameter of RST by PEG400) ([1]; x1 = 0.65): 1.55
- D (derivative of the Gibbs energy of transfer) ([1]; x1 = 0.65): –3.54 kJ·mol^–1
- G1,3 (Kirkwood–Buff integral, PEG400–RST) ([1]; x1 = 0.65): –321.5 cm^3·mol^–1
- G2,3 (Kirkwood–Buff integral, water–RST) ([1]; x1 = 0.65): –643.4 cm^3·mol^–1
- Vcor (correlation volume) ([1]; x1 = 0.65): 5144 cm^3·mol^–1
- 100 δx1,3 (preferential solvation parameter of RST by PEG400) ([1]; x1 = 0.70): 1.46
- D (derivative of the Gibbs energy of transfer) ([1]; x1 = 0.70): –3.21 kJ·mol^–1
- G1,3 (Kirkwood–Buff integral, PEG400–RST) ([1]; x1 = 0.70): –321.0 cm^3·mol^–1
- G2,3 (Kirkwood–Buff integral, water–RST) ([1]; x1 = 0.70): –664.5 cm^3·mol^–1
- Vcor (correlation volume) ([1]; x1 = 0.70): 5379 cm^3·mol^–1
- 100 δx1,3 (preferential solvation parameter of RST by PEG400) ([1]; x1 = 0.75): 1.31
- D (derivative of the Gibbs energy of transfer) ([1]; x1 = 0.75): –2.92 kJ·mol^–1
- G1,3 (Kirkwood–Buff integral, PEG400–RST) ([1]; x1 = 0.75): –320.4 cm^3·mol^–1
- G2,3 (Kirkwood–Buff integral, water–RST) ([1]; x1 = 0.75): –682.1 cm^3·mol^–1
- Vcor (correlation volume) ([1]; x1 = 0.75): 5607 cm^3·mol^–1
- 100 δx1,3 (preferential solvation parameter of RST by PEG400) ([1]; x1 = 0.80): 1.09
- D (derivative of the Gibbs energy of transfer) ([1]; x1 = 0.80): –2.67 kJ·mol^–1
- G1,3 (Kirkwood–Buff integral, PEG400–RST) ([1]; x1 = 0.80): –319.6 cm^3·mol^–1
- G2,3 (Kirkwood–Buff integral, water–RST) ([1]; x1 = 0.80): –691.4 cm^3·mol^–1
- Vcor (correlation volume) ([1]; x1 = 0.80): 5827 cm^3·mol^–1
- 100 δx1,3 (preferential solvation parameter of RST by PEG400) ([1]; x1 = 0.85): 0.83
- D (derivative of the Gibbs energy of transfer) ([1]; x1 = 0.85): –2.45 kJ·mol^–1
- G1,3 (Kirkwood–Buff integral, PEG400–RST) ([1]; x1 = 0.85): –318.5 cm^3·mol^–1
- G2,3 (Kirkwood–Buff integral, water–RST) ([1]; x1 = 0.85): –687.6 cm^3·mol^–1
- Vcor (correlation volume) ([1]; x1 = 0.85): 6039 cm^3·mol^–1
- 100 δx1,3 (preferential solvation parameter of RST by PEG400) ([1]; x1 = 0.90): 0.54
- D (derivative of the Gibbs energy of transfer) ([1]; x1 = 0.90): –2.26 kJ·mol^–1
- G1,3 (Kirkwood–Buff integral, PEG400–RST) ([1]; x1 = 0.90): –317.0 cm^3·mol^–1
- G2,3 (Kirkwood–Buff integral, water–RST) ([1]; x1 = 0.90): –668.0 cm^3·mol^–1
- Vcor (correlation volume) ([1]; x1 = 0.90): 6246 cm^3·mol^–1
- 100 δx1,3 (preferential solvation parameter of RST by PEG400) ([1]; x1 = 0.95): 0.25
- D (derivative of the Gibbs energy of transfer) ([1]; x1 = 0.95): –2.08 kJ·mol^–1
- G1,3 (Kirkwood–Buff integral, PEG400–RST) ([1]; x1 = 0.95): –315.3 cm^3·mol^–1
- G2,3 (Kirkwood–Buff integral, water–RST) ([1]; x1 = 0.95): –633.9 cm^3·mol^–1
- Vcor (correlation volume) ([1]; x1 = 0.95): 6447 cm^3·mol^–1
- 100 δx1,3 (preferential solvation parameter of RST by PEG400) ([1]; x1 = 1.00): 0.00
- D (derivative of the Gibbs energy of transfer) ([1]; x1 = 1.00): –1.93 kJ·mol^–1
- G1,3 (Kirkwood–Buff integral, PEG400–RST) ([1]; x1 = 1.00): –313.7 cm^3·mol^–1
- G2,3 (Kirkwood–Buff integral, water–RST) ([1]; x1 = 1.00): –590.9 cm^3·mol^–1
- Vcor (correlation volume) ([1]; x1 = 1.00): 6645 cm^3·mol^–1
Structure (SMILES): CC(C)c1nc(N(C)S(C)(=O)=O)nc(-c2ccc(F)cc2)c1/C=C/[C@@H](O)C[C@@H](O)CC(=O)[O-].CC(C)c1nc(N(C)S(C)(=O)=O)nc(-c2ccc(F)cc2)c1/C=C/[C@@H](O)C[C@@H](O)CC(=O)[O-].[Ca+2] [RST, (E)-7-[4-(4-fluorophenyl)-6-isopropyl-2-[methyl(methylsulfonyl)amino]pyrimidin-5-yl]-(3R,5S)-3,5-dihydroxyhept-6-enoic acid, calcium salt (2:1)]
- pKa ([2]; GastroPlus input parameter (Table 5)): 4
- hydrogen-bonding acceptor counts ([2]; GastroPlus input parameter): 10
- hydrogen-bonding donor counts ([2]; GastroPlus input parameter): 3
- maximum solubility in PEG400 ([2]; PEG400): 65.7 mg/g
- aqueous solubility ([2]; as reported in NLM PubChem): 8.86 × 10^–2 g/L
- solubility (mg/mL) in water at 25 (°C) ([2]; water, 25 °C, GastroPlus input parameter): 0.33 mg/mL
- elimination half-life ([3]; GastroPlus input parameter): 19 h
- total clearance ([3]; GastroPlus input parameter): 0.455 L/h
- volume of distribution ([3]; GastroPlus input parameter): 2.23 L/kg
- oral bioavailability ([3]; reported): ~20%
